# Test results taken from patent US8735388B2, “Heterocyclic compounds with affinity to muscarinic receptors” (Abbvie B. V. A., priority 2007, dated 2014).
# Where two headings read alike, the source gives them in different places.
# Tests used:
# [1] = target: T1, Muscarine M4 (GPCR-A-MA-ACH M4) (Homo sapiens, UniProt P08173); assay: Muscarine M4 cell-based functional assay (CHO cells, Ca2+ - Aequorin luminescence)
# T1 construct: expressed in transfected cells; host or cells: CHO cells
# T1 sequence (P08173 1-479): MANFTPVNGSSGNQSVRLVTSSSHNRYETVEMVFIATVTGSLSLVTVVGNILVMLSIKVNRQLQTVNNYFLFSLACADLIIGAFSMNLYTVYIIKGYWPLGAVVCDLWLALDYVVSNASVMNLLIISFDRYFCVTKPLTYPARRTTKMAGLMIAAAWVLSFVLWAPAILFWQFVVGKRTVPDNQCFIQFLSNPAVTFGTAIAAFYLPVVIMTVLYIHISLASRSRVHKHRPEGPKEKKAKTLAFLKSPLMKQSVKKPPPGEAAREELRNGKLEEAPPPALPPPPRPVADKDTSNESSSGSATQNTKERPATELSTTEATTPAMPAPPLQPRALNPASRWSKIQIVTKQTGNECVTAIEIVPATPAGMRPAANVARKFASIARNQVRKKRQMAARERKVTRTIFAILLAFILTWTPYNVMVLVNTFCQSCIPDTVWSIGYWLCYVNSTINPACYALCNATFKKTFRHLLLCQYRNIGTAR
# Protocol: Compounds were dissolved in DMSO (10 mM) and diluted in assay buffer to test concentration. Prime testing was at 1 μM; for actives in antagonist mode (PI, percent inhibition with respect to reference agonist and blank>30%) as well as actives in agonist mode (PS, percent stimulation with respect to reference agonist and blank>30%) testing was continued at lower concentrations in 10-fold dilutions: 0.1 μM, 0.01 μM, etc.
# Cells were incubated with compound and the response indicated was measured.
# The results are expressed as a percent of reference agonist values and blanks in the presence of the test compound, percent stimulation for agonist mode; for the antagonist mode (test compound in the presence of reference agonist) as percent inhibition. The EC50 values (concentration causing a half-maximal stimulation of control values), IC50 values (concentration causing a half-maximal inhibition of control values) were determined by non-linear regression analysis of the concentration-response curves using Hill equation curve fitting.
# [2] = target: T2, Muscarine M1 (GPCR-A-MA-ACH M1) (Homo sapiens, UniProt P11229); assay: Muscarine M1 receptor binding, 3H-Pirenzepine; conditions: human M1, CHO cells, ligand 2 nM, 60 min/22° C., read-out: RB Musc. M1 3H-Pirenzepine pKi (converted)
# T2 construct: expressed in transfected cells; host or cells: CHO cells
# T2 sequence (P11229 1-460): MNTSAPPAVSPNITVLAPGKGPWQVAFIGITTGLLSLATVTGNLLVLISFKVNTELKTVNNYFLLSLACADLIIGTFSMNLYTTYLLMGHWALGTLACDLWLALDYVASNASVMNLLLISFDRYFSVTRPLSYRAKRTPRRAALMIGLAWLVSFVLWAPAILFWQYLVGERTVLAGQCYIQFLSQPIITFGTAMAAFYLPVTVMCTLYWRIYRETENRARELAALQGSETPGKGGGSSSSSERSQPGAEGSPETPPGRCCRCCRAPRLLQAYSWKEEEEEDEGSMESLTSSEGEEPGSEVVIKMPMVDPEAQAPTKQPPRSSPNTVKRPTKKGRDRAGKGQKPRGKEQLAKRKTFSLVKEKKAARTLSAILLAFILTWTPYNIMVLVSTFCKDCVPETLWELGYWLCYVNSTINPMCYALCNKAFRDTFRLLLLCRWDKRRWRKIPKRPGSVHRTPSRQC
# Protocol: (§1) Compounds were dissolved in DMSO (10 mM) and diluted in assay buffer to test concentration. Prime testing was at 10 μM; for actives (PI, percent inhibition with respect to total and non-specific binding >40%) testing was continued at lower concentrations in 10-fold dilutions: 1 μM, 0.1 μM, etc.
# (§2) Following incubation of compound with the receptor preparation (from ‘Tissue’) and the Ligand at the time and temperature indicated, the receptor preparations were rapidly filtered under vacuum through glass fibre filters; the filters were washed extensively with an ice-cold buffer using a harvester. Bound radioactivity was measured by scintillation counting using a liquid scintillation cocktail.
# (§3) Results were expressed as percentage of total Ligand binding and that of Non Specific Binding, per concentration of Compound tested (duplicates); from the concentration—displacement curves IC50 values were determined by non-linear regression analysis using Hill equation curve fitting. The inhibition constants (Ki) were calculated from the Cheng-Prushoff equation Ki=IC50/(1+L/Kd), where L is the concentration of radioligand in the assay, and Kd the affinity of the radioligand for the receptor. Results were expressed as pKi's, means±SD of at least 2 separate experiments; i.e. outliers (outside+/−1 std of mean) and discrepancies were excluded.
# [3] = target: T1, Muscarine M4 (GPCR-A-MA-ACH M4); assay: Muscarine M4 receptor binding, 3H-4DAMP; conditions: human M4, CHO cells, ligand 0.2 nM, 60 min/22° C., read-out: RB Musc. M4 3H-DAMP pKi (converted)
# Protocol: as §1, §2, §3
# [4] = target: T2, Muscarine M1 (GPCR-A-MA-ACH M1); assay: Muscarine M1 cell-based functional assay (CHO cells, Ca2+ - FLIPR Fluorimetry); conditions: read-out: Cell funct. Musc. M1 Agonism pEC50 (converted)
# [5] = target: T1, Muscarine M4 (GPCR-A-MA-ACH M4); assay: Muscarine M4 receptor binding, 3H-Oxotremorine
# Protocol: as §1, §2, §3
# [6] = target: T3, Muscarine M2 (GPCR-A-MA-ACH M2) (Cavia porcellus, UniProt H0VRN8); assay: Muscarine M2 functional assay, isolated organ (left atrium, electrically paced), agonist and antagonist mode; design: species or system Guinea Pig
# T3 construct: from tissue; host or cells: guinea pig left atrium (electrically paced)
# T3 sequence (H0VRN8 1-466): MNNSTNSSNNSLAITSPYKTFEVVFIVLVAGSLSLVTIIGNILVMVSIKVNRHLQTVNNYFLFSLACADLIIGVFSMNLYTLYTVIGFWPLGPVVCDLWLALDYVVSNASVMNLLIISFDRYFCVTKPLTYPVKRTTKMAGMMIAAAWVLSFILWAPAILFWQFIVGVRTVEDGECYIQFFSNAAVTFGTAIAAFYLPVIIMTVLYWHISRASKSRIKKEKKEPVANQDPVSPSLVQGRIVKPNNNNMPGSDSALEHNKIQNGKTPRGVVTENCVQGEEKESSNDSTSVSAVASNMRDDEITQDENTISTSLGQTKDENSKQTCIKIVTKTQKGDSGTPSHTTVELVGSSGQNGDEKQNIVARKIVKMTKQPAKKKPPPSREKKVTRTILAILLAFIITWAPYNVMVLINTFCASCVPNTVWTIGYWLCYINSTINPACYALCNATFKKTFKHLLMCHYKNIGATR
# [7] = target: T4, Muscarine M3 (GPCR-A-MA-ACH M3) (Cavia porcellus, UniProt H0W1Z3); assay: Muscarine M3 functional assay, isolated organ (ileum), agonist and antagonist mode; design: species or system Guinea Pig
# T4 construct: from tissue; host or cells: guinea pig ileum
# T4 sequence (H0W1Z3 1-590): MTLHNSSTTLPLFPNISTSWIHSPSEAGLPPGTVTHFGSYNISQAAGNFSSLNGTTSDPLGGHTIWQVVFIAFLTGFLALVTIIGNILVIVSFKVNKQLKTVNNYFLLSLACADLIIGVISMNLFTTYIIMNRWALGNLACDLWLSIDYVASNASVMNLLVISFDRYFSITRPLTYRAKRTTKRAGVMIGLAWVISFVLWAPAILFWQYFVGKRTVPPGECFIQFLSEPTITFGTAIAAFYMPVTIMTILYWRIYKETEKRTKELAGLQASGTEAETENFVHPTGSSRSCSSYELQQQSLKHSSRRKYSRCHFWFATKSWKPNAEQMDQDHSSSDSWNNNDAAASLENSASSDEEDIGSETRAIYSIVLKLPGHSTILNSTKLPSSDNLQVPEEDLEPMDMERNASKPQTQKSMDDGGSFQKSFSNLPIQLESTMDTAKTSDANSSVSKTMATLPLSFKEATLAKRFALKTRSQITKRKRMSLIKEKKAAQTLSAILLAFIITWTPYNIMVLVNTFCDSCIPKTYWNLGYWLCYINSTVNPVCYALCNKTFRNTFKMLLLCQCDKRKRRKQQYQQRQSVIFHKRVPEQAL
# [8] = human M4, CHO cells, agonist mode, reference agonist oxotremorine, read-out: Cell funct. Musc. M4 Agonism pEC50 (converted)
# [9] = human M1, CHO cells, agonist mode, reference agonist acetylcholine
# [10] = human M4, CHO cells, receptor binding, ligand 6 nM, 30 min/25° C., read-out: RB Musc. M4 3H-Oxotremorine pKi (converted)
smiles,measurement,setting,value
"CCCCC#Cc1c[nH]nc1C1=CCCN(C)C1 [Compound 45A, 3-(4-Hex-1-ynyl-1H-Pyrazol-3-yl)-1,2,5,6-tetrahydro-1-methylpyridine]",EC50,[1]; [8],794 nM
same,Ki,[2],1580 nM
same,Ki,[3],631 nM
same,EC50,[4]; [9],126 nM
same,Ki,[5]; [10],398 nM
"CCCCCC#Cc1c[nH]nc1C1=CCCN(C)C1 [Compound 45B, 3-(4-Hept-1-ynyl-1H-pyrazol-3-yl)-1,2,5,6-tetrahydro-1-methylpyridine]",EC50,[1]; [8],316 nM
same,Ki,[2],2000 nM
same,Ki,[3],1260 nM
same,EC50,[4]; [9],126 nM
same,Ki,[5]; [10],501 nM
"CCCCCCCC#Cc1c[nH]nc1C1=CCCN(C)C1 [Compound 45C, 3-(4-Non-1-ynyl-1H-pyrazol-3-yl)-1,2,5,6-tetrahydro-1-methylpyridine]",EC50,[1]; [8],2000 nM
same,Ki,[2],794 nM
same,Ki,[3],794 nM
same,EC50,[4]; [9],> 1000 nM
same,Ki,[5]; [10],501 nM
"CN1CCC=C(c2n[nH]cc2C#CCCCc2ccccc2)C1 [Compound 45D, 3-[4-(5-Phenyl-pent-1-ynyl)-1H-pyrazol-3-yl]-1,2,5,6-tetrahydro-1-methylpyridine]",EC50,[1]; [8],1260 nM
same,Ki,[2],2000 nM
same,Ki,[3],631 nM
same,EC50,[4]; [9],794 nM
same,Ki,[5]; [10],501 nM
"CN1CCC=C(c2n[nH]cc2C#CCCCC2CCCCC2)C1 [Compound 45E, 3-[4-(5-Cyclohexyl-pent-1-ynyl)-1H-pyrazol-3-yl]-1,2,5,6-tetrahydro-1-methylpyridine]",EC50,[1]; [8],> 10000 nM
same,Ki,[2],1580 nM
same,Ki,[3],1580 nM
same,EC50,[4]; [9],> 1000 nM
same,Ki,[5]; [10],1580 nM
"CCCCC=Cc1c[nH]nc1C1=CCCN(C)C1 [Compound 47A, 3-(4-Hex-1-enyl-1H-pyrazol-3-yl)-1,2,5,6-tetrahydro-1-methylpyridine]",EC50,[1]; [8],501 nM
same,Ki,[2],2510 nM
same,Ki,[3],794 nM
same,EC50,[4]; [9],158 nM
same,Ki,[5]; [10],251 nM
"CCCCCCC=Cc1c[nH]nc1C1=CCCN(C)C1 [Compound 47C, 3-(4-Oct-1-enyl-1H-pyrazol-3-yl)-1,2,5,6-tetrahydro-1-methylpyridine]",EC50,[1]; [8],631 nM
same,Ki,[2],794 nM
same,Ki,[3],794 nM
same,EC50,[4]; [9],794 nM
same,Ki,[5]; [10],251 nM
"CCSc1c[nH]nc1C1CN2CCC1CC2 (stereo not shown) [Compound 49D, 3-(4-Ethylsulfanyl-1H-pyrazol-3-yl)-1-azabicyclo[2.2.2]octane]",EC50,[1],158 nM
same,Ki,[2],794 nM
same,Ki,[3],100 nM
same,EC50,[4],39.8 nM
same,Ki,[5],126 nM
"FC(F)=CCCSc1c[nH]nc1C1CN2CCC1CC2 (stereo not shown) [Compound 49I, 3-[4-(4,4-Difluoro-but-3-enylsulfanyl)-1H-pyrazol-3-yl]-1-azabicyclo[2.2.2]octane]",EC50,[1],20 nM
same,Ki,[2],316 nM
same,Ki,[3],63.1 nM
same,EC50,[4],3.16 nM
same,Ki,[5],12.6 nM
"Ic1c[nH]nc1[C@@H]1CN2CCC[C@H]1C2 [Compound 59, endo-6-(4-iodo-1H-pyrazol-3-yl)-1-azabicyclo[3.2.1]octane]",EC50,[1],> 10000 nM
same,Ki,[2],1000 nM
same,Ki,[3],100 nM
same,EC50,[4],79.4 nM
same,Ki,[5],200 nM
"CCCCC=Cc1conc1C1=CCCN(C)C1 [Compound 68A, 3-(4-Hex-1-enyl-isoxazol-3-yl)-1,2,5,6-tetrahydro-1-methylpyridine]",EC50,[1]; [8],794 nM
same,Ki,[2],1580 nM
same,Ki,[3],251 nM
same,EC50,[4]; [9],200 nM
same,Ki,[5]; [10],631 nM
"CCCCCCC=Cc1conc1C1=CCCN(C)C1 [Compound 68B, 3-(4-Oct-1-enyl-isoxazol-3-yl)-1,2,5,6-tetrahydro-1-methylpyridine]",EC50,[1]; [8],794 nM
same,Ki,[2],5010 nM
same,Ki,[3],1000 nM
same,EC50,[4]; [9],794 nM
same,Ki,[5]; [10],794 nM
"CCCCCC#Cc1conc1C1=CCCN(C)C1 [Compound 70A, 3-(4-Hept-1-ynyl-isoxazol-3-yl)-1,2,5,6-tetrahydro-1-methylpyridine]",EC50,[1]; [8],631 nM
same,Ki,[2],1000 nM
same,Ki,[3],200 nM
same,EC50,[4]; [9],251 nM
same,Ki,[5]; [10],251 nM
"COc1ccccc1CNCCCCCCNCCCCCCCCNCCCCCCNCc1ccccc1OC [Methoctramine, reference compound]",Kb,[6],12.6 nM
"CN1CCN(CC(=O)N2c3ccccc3C(=O)Nc3cccnc32)CC1 [Pirenzepine, reference compound]",Kb,[7],1.26 nM
